The subject of data set [1] is cultured human tubule cells. Kind of data set: Cell viability of cultured human tubule cells exposed to SnPP. The data set is classed as cell-based. To be noted: for % Viable Cells: n = 6, control 100%. Here is the method:
The composition of Example 1 and the Comparative Example were exposed to incubated cultured human tubule cells with different concentrations of SnPP.

The test system of a further data set is HO-1. Kind of data set: HO-1/GAPDH mRNA (cortex) after IV FeS + SnPP, biomarker for oxidative stress. The data set is classed as in vivo. The note with it: combined with iron sucrose; HO-1 as indicator of oxidative stress. Here is the method: The SnPP composition of Example 1 and the Comparative Example (1 micromole) were combined with iron sucrose (1 mg) to assess biomarkers for oxidative stress.

On to `C=CC1=C(C)C2=Cc3c(C=C)c(C)c4[n]3[Sn]([Cl])([Cl])[n]3c(c(C)c(CCC(=O)O)c3=CC3=NC(=C4)C(C)=C3CCC(=O)O)=CC1=N2` [Example 1, Stannic protoporfin], for which the results for the “% Viable Cells” value in data set [1] (SnPP 10 nmol/mL), in data set [1] (SnPP 25 nmol/mL) and in data set [1] (SnPP 75 nmol/mL) were 97.9%, 95.3% and 88.9%, respectively. Also, the cell killing in data set [1] (highest concentration of SnPP (75 nmol/mL)) turned out to be 11%. In addition, in data set [1] (human tubule cells), the “cell death relative to comparative example” value was “less cell death”. In addition, in the data set on HO-1, the “HO-1 induction relative to comparative example” value is given as “lower HO-1 induction”.

The values above are taken from patent US20240166671A1, “Novel Stannic Protoporfin Compositions, Methods of Making, and Uses Thereof” (Renibus Therapeutics, Inc., priority 2022, published 2024).
